Results: patent US20260262643A1, “HERBICIDAL BENZOXAZINES” (FMC CORPORATION, priority 2022, published 2026)

What was measured:
ragweed [1] = assay: Test A postemergence; format: in vivo, Ambrosia artemisiifolia; details: 1000 g ai/ha, Postemergence; 0 to 100 scale
Procedure, shortened: (§1)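 Greenhouse pot test, 10 days. Compound (non-phytotoxic solvent, surfactant) sprayed on soil at seeding or on seedlings at one- to two-leaf stage. Visual injury rated 0–100 against untreated plants.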

foxtail, giant [2] = assay: Test A preemergence; format: in vivo, Setaria faberi; details: 1000 g ai/ha, 0 to 100 scale (0 no effect, 100 complete control), 10 days
Procedure, shortened: as §1

ryegrass, Italian [3] = assay: Test A preemergence; format: in vivo, Lolium multiflorum; details: 1000 g ai/ha, 0 to 100 scale (0 no effect, 100 complete control), 10 days
Procedure, shortened: as §1

pigweed, palmer [4] = assay: Test A preemergence; format: in vivo, Amaranthus palmeri; details: 1000 g ai/ha, 0 to 100 scale (0 no effect, 100 complete control), 10 days
Procedure, shortened: as §1

ryegrass, Italian [5] = assay: Test A postemergence; format: in vivo, Lolium multiflorum; details: 1000 g ai/ha, Postemergence; 0 to 100 scale
Procedure, shortened: as §1

barnyardgrass [6] = assay: Test A preemergence; format: in vivo, Echinochloa crusgalli; details: 1000 g ai/ha, 0 to 100 scale (0 no effect, 100 complete control), 10 days
Description: (§2) Seeds of plant species selected from barnyardgrass (Echinochloa crusgalli), blackgrass (Alopecurus myosuroides), corn (Zea mays), foxtail, giant (giant foxtail, Setaria faberi), goosegrass (Eleusine indica), kochia (Bassia scoparia), oat, wild (wild oat, Avena fatua), pigweed, palmer (palmer amaranth, palmer pigweed, Amaranthus palmeri), Pigweed, Redroot (redroot pigweed, Amaranthus retroflexus), ragweed (common ragweed, Ambrosia artemisiifolia), ryegrass, Italian (italian ryegrass, Lolium multiflorum), soybean (Glycine max), and wheat (Triticum aestivum) were planted into a blend of loam soil and sand and treated preemergence with a directed soil spray using test chemicals formulated in a non-phytotoxic solvent mixture which included a surfactant. At the same time, plants selected from these crops and weed species and also galium (catchweed bedstraw, Galium aparine) and horseweed (Erigeron canadensis) were planted in pots containing the same blend of loam soil and sand and treated with postemergence applications of test chemicals formulated in the same manner. Plants ranged in height from 2 to 10 cm and were in the one- to two-leaf stage for the postemergence treatment. Treated plants and untreated controls were maintained in a greenhouse for 10 days, after which time all treated plants were compared to untreated controls and visually evaluated for injury. Plant response ratings, summarized in Table A, are based on a 0 to 100 scale where 0 is no effect and 100 is complete control. A dash (-) response means no test result.

blackgrass [7] = assay: Test A preemergence; format: in vivo, Alopecurus myosuroides; details: 1000 g ai/ha, 0 to 100 scale (0 no effect, 100 complete control), 10 days
Procedure, shortened: as §1

kochia [8] = assay: Test A postemergence; format: in vivo, Bassia scoparia; details: 1000 g ai/ha, Postemergence; 0 to 100 scale
Procedure, shortened: as §1

blackgrass [9] = assay: Test A postemergence; format: in vivo, Alopecurus myosuroides; details: 1000 g ai/ha, Postemergence; 0 to 100 scale
Procedure, shortened: as §1

barnyardgrass [10] = assay: Test A postemergence; format: in vivo, Echinochloa crusgalli; details: 1000 g ai/ha, Postemergence; 0 to 100 scale
Description: as §2

ragweed [11] = assay: Test A preemergence; format: in vivo, Ambrosia artemisiifolia; details: 1000 g ai/ha, 0 to 100 scale (0 no effect, 100 complete control), 10 days
Procedure, shortened: as §1

pigweed, palmer [12] = assay: Test A postemergence; format: in vivo, Amaranthus palmeri; details: 1000 g ai/ha, Postemergence; 0 to 100 scale
Procedure, shortened: as §1

galium = assay: Test A postemergence; format: in vivo, Galium aparine; details: 1000 g ai/ha, Postemergence; 0 to 100 scale
Procedure, shortened: as §1

foxtail, giant [13] = assay: Test A postemergence; format: in vivo, Setaria faberi; details: 1000 g ai/ha, Postemergence; 0 to 100 scale
Procedure, shortened: as §1

horseweed = assay: Test A postemergence; format: in vivo, Erigeron canadensis; details: 1000 g ai/ha, Postemergence; 0 to 100 scale
Procedure, shortened: as §1

kochia [14] = assay: Test A preemergence; format: in vivo, Bassia scoparia; details: 1000 g ai/ha, 0 to 100 scale (0 no effect, 100 complete control), 10 days
Procedure, shortened: as §1

Cc1cccc2c1O[C@@H](C)CN2C(=O)c1cccc(-n2cc(C(F)(F)F)cn2)c1 [Compound 130]
Plant response rating, Ragweed (ragweed [1]): 0
Plant response rating, Foxtail, Giant (foxtail, giant [2]): 0
Plant response rating, Ryegrass, Italian (ryegrass, Italian [3]): 0
Plant response rating, Pigweed, Palmer (pigweed, palmer [4]): 0
Plant response rating, Ryegrass, Italian (ryegrass, Italian [5]): 0
Plant response rating, Barnyardgrass (barnyardgrass [6]): 10
Plant response rating, Blackgrass (blackgrass [7]): 10
Plant response rating, Kochia (kochia [8]): 0
Plant response rating, Blackgrass (blackgrass [9]): 0
Plant response rating, Barnyardgrass (barnyardgrass [10]): 0
Plant response rating, Ragweed (ragweed [11]): 0
Plant response rating, Pigweed, Palmer (pigweed, palmer [12]): 0
Plant response rating, Galium (galium): 0
Plant response rating, Foxtail, Giant (foxtail, giant [13]): 0
Plant response rating, Horseweed (horseweed): 0
Plant response rating, Kochia (kochia [14]): 0

CCOC(=O)c1cnn(-c2cccc(C(=O)N3C[C@H](C)Oc4c(C)cccc43)c2)c1 [Compound 133]
Plant response rating, Ragweed (ragweed [1]): 40
Plant response rating, Foxtail, Giant (foxtail, giant [2]): 80
Plant response rating, Ryegrass, Italian (ryegrass, Italian [3]): 70
Plant response rating, Pigweed, Palmer (pigweed, palmer [4]): 40
Plant response rating, Ryegrass, Italian (ryegrass, Italian [5]): 60
Plant response rating, Barnyardgrass (barnyardgrass [6]): 60
Plant response rating, Blackgrass (blackgrass [7]): 0
Plant response rating, Kochia (kochia [8]): 40
Plant response rating, Blackgrass (blackgrass [9]): 0
Plant response rating, Barnyardgrass (barnyardgrass [10]): 20
Plant response rating, Ragweed (ragweed [11]): 30
Plant response rating, Pigweed, Palmer (pigweed, palmer [12]): 30
Plant response rating, Galium (galium): 60
Plant response rating, Foxtail, Giant (foxtail, giant [13]): 30
Plant response rating, Horseweed (horseweed): 0
Plant response rating, Kochia (kochia [14]): 0

Cc1cccc2c1O[C@@H](C)CN2C(=O)c1cccc(-n2cc(C#N)cn2)c1 [Compound 134]
Plant response rating, Ragweed (ragweed [1]): 0
Plant response rating, Foxtail, Giant (foxtail, giant [2]): 70
Plant response rating, Ryegrass, Italian (ryegrass, Italian [3]): 80
Plant response rating, Pigweed, Palmer (pigweed, palmer [4]): 90
Plant response rating, Ryegrass, Italian (ryegrass, Italian [5]): 20
Plant response rating, Barnyardgrass (barnyardgrass [6]): 30
Plant response rating, Blackgrass (blackgrass [7]): 40
Plant response rating, Kochia (kochia [8]): 50
Plant response rating, Blackgrass (blackgrass [9]): 0
Plant response rating, Barnyardgrass (barnyardgrass [10]): 10
Plant response rating, Ragweed (ragweed [11]): 50
Plant response rating, Pigweed, Palmer (pigweed, palmer [12]): 30
Plant response rating, Galium (galium): 20
Plant response rating, Foxtail, Giant (foxtail, giant [13]): 50
Plant response rating, Horseweed (horseweed): 0
Plant response rating, Kochia (kochia [14]): 20

Cc1cccc2c1O[C@@H](C)CN2C(=O)c1cccc(-n2cc(Cl)cn2)c1 [Compound 132]
Plant response rating, Ragweed (ragweed [1]): 0
Plant response rating, Foxtail, Giant (foxtail, giant [2]): 0
Plant response rating, Ryegrass, Italian (ryegrass, Italian [3]): 0
Plant response rating, Pigweed, Palmer (pigweed, palmer [4]): 0
Plant response rating, Ryegrass, Italian (ryegrass, Italian [5]): 0
Plant response rating, Barnyardgrass (barnyardgrass [6]): 10
Plant response rating, Blackgrass (blackgrass [7]): 0
Plant response rating, Kochia (kochia [8]): 20
Plant response rating, Blackgrass (blackgrass [9]): 0
Plant response rating, Barnyardgrass (barnyardgrass [10]): 0
Plant response rating, Ragweed (ragweed [11]): 0
Plant response rating, Pigweed, Palmer (pigweed, palmer [12]): 0
Plant response rating, Galium (galium): 0
Plant response rating, Foxtail, Giant (foxtail, giant [13]): 10
Plant response rating, Horseweed (horseweed): 0
Plant response rating, Kochia (kochia [14]): 0

Cc1cccc2c1O[C@@H](C)CN2C(=O)c1cccc(-n2cc(F)cn2)c1 [Compound 131]
Plant response rating, Ragweed (ragweed [1]): 0
Plant response rating, Foxtail, Giant (foxtail, giant [2]): 60
Plant response rating, Ryegrass, Italian (ryegrass, Italian [3]): 60
Plant response rating, Pigweed, Palmer (pigweed, palmer [4]): 0
Plant response rating, Ryegrass, Italian (ryegrass, Italian [5]): 0
Plant response rating, Barnyardgrass (barnyardgrass [6]): 10
Plant response rating, Blackgrass (blackgrass [7]): 10
Plant response rating, Kochia (kochia [8]): 40
Plant response rating, Blackgrass (blackgrass [9]): 0
Plant response rating, Barnyardgrass (barnyardgrass [10]): 10
Plant response rating, Ragweed (ragweed [11]): 0
Plant response rating, Pigweed, Palmer (pigweed, palmer [12]): 0
Plant response rating, Galium (galium): 20
Plant response rating, Foxtail, Giant (foxtail, giant [13]): 10
Plant response rating, Horseweed (horseweed): 0
Plant response rating, Kochia (kochia [14]): 0
